# Assay: GLP toxicokinetic study in anesthetized rabbits, plasma oxytocin by LC-MS/MS
# Format: in vivo
# Conditions: rabbit, IM, 10 IU
# Description: The toxicokinetic study in rabbits (Table 2) was conducted at a contract animal facility (Noble Life Sciences, Sykesville, MD, USA) under approval from Noble Life Sciences IACUC (approval code: NLS-589, date: 13 May 2020) and in compliance with the U.S. Food and Drug Administration Good Laboratory Practice Regulations for Nonclinical Laboratory Studies (21 CFR Part 58).
# For SL placement of fast dissolving tablets, the rabbit was anesthetized and positioned on a flat table, with the lower jaw strongly supported in a horizontal level on the table. Using rounded tip stainless tweezers, the rabbit’s tongue was carefully raised, and the sublingual tablet was placed beneath the tongue (see Figure 1). Anesthesia was maintained for 3 h after drug administration to keep the tablet in sublingual position and prevent entering the gastrointestinal tract.
# Animals were not fasted prior to blood collection. Blood was collected at the time points of 0 min (pre-dose) and 5, 10, 15, 20, 30, 60, 120, and 180 min post-dose and at euthanasia only the first four animals for SL group. All animals were anesthetized pre-dose, prior to dosing. All animals were anesthetized with ketamine (35–50 mg/kg) and xylazine (3–5 mg/kg) via a subcutaneous or intramuscular (IM) route followed by maintenance anesthesia with additional half doses if needed or via inhaled isoflurane. At the selected time points, whole blood was collected aseptically from the auricular artery and dispensed into the appropriate collection tubes in any order: (1) K3 EDTA for hematology determinations; (2) 0.129 M, 3.8% sodium citrate for coagulation analyses (plasma); (3) serum separator tube for serum chemistry and C-reactive protein; and (4) aprotinin-spiked (K2EDTA) tubes for plasma oxytocin determinations. Tubes containing hematology specimens were placed at room temperature on a rocker for at least 30 min prior to shipment. Tubes containing whole blood for serum isolation were maintained for at least 30 min and no more than 4 h at room temperature before being processed to serum. Tubes containing aprotinin-spiked (K2EDTA) specimens for oxytocin determinations were maintained on wet ice or cold packs before use and after collection. They were also maintained on a rocker for at least 30 min prior to processing.
# Blood samples for oxytocin determination were collected into the Aprotinin spiked (K2EDTA) vacutainer tubes and processed for collection of plasma. The samples were processed by centrifuging for approximately 15 min at approximately 3000 rpm and approximately 4 °C; they were aliquoted into cryovials without anticoagulant and were immediately placed on dry ice. At termination, blood was collected from the SL group for serum chemistry, C-reactive protein, hematology, and coagulation. Blood collected for coagulation analyses was collected into tubes containing 3.8% sodium citrate and was processed for plasma per the Noble protocol. All serum and plasma samples were processed aseptically.
# Each plasma sample was aliquoted into two vials of an approximately equal volume. All the collected plasma was analyzed for oxytocin levels by the LC-MS/MS method.
# The bioanalytical method for quantification of oxytocin in rabbit plasma (K2EDTA) was validated following the FDA guidelines for a bioanalytical method validation at NorthEast BioAnalytical Laboratory, LLC (NEBA) (Hamden, CT, USA), via reverse phase liquid chromatography separation (Column: Zorbax SB C18 (Agilent, Santa Clara, CA, USA) 3.5 μm 150 × 4.6 mm, Security/Guard Cartridge Gemini C18 4 × 2.0 mm) and detection by tandem mass spectrometry (LC/MS/MS) using Sciex API-5000 Mass Spectrometer. Analysis of Oxytocin was performed using stable label internal standard, Oxytocin-d5. Oxytocin was received as an acetate salt and Oxytocin-d5 was received as Trifluoroacetate salt.
# For quantitation, the LC/MS/MS data were acquired using Analyst® v1.6 software (Sciex, Framingham, MA, USA). […]
structure (smiles),measurement,setting,value
"CC[C@H](C)[C@@H]1NC(=O)[C@H](Cc2ccc(O)cc2)NC(=O)[C@@H](N)CSSC[C@@H](C(=O)N2CCC[C@H]2C(=O)N[C@@H](CC(C)C)C(=O)NCC(N)=O)NC(=O)[C@H](CC(N)=O)NC(=O)[C@H](CCC(N)=O)NC1=O [Intramuscular (Control), Oxytocin]",AUC(0-t),"plasma, linear trapezoidal, mean, n = 8",4.82 ± 0.728 ng·h/mL
same,half-life,"plasma, mean, n = 8",1.02 ± 0.336 h
same,time to rapid increase in plasma oxytocin concentration,,≤ 5 min
same,Tlast,"mean, n = 8",2.88 ± 0.354 h
same,Tmax,"plasma, LC-MS/MS, mean ± SD, n = 8, SD",1.13 ± 0.916 h
same,Cmax,"plasma, LC-MS/MS, mean, n = 8",2.66 ± 0.567 ng/mL

# Reference: PMC9144145, “Preclinical Safety and Pharmacokinetics of Heat Stable Oxytocin in Sublingual Fast-Dissolving Tablet Formulation” (Pharmaceutics, 2022)
